According to ChEMBL document CHEMBL1201862, “PubChem BioAssay data set” (2004):
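96-well plates; 48 h exposure; 5 concentrations. Endpoints by linear interpolation between flanking doses. Not reached: highest tested concentration assigned. GI50: concentration for 50% inhibition of growth.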 Activity calls are given as the source filed them. Rule as the data show it: active = GI50 up to about 1.1 µM and inactive = higher.

Key:
Assay in all cases: DTP human tumour cell line panel, 48 h
[1] = tested on: A549
[2] = tested on: COLO 205
[3] = tested on: HCC 2998
[4] = tested on: HL-60
[5] = tested on: HOP-62
[6] = tested on: KM12
[7] = tested on: M14
[8] = tested on: MDA-N
[9] = tested on: Malme-3M
[10] = tested on: NCI-H522
[11] = tested on: OVCAR-3
[12] = tested on: OVCAR-5
[13] = tested on: OVCAR-8
[14] = tested on: RPMI-8226
[15] = tested on: SK-MEL-28
[16] = tested on: SK-MEL-2
[17] = tested on: SK-MEL-5
[18] = tested on: TK-10
[19] = tested on: U-251
[20] = tested on: UO-31

| Structure (SMILES) | GI50 [1] | GI50 [2] | GI50 [3] | GI50 [4] | GI50 [5] | GI50 [6] | GI50 [7] | GI50 [8] | GI50 [9] | GI50 [10] | GI50 [11] | GI50 [12] | GI50 [13] | GI50 [14] | GI50 [15] | GI50 [16] | GI50 [17] | GI50 [18] | GI50 [19] | GI50 [20] |
| --- | --- | --- | --- | --- | --- | --- | --- | --- | --- | --- | --- | --- | --- | --- | --- | --- | --- | --- | --- | --- |
| NC(=O)/N=C1\NCCC(=O)N1CCc1c[nH]c2ccccc12 | 18.9 µM (inactive) | 14.1 µM (inactive) | 19.4 µM (inactive) | 19.2 µM (inactive) | 19.4 µM (inactive) | 37.8 µM (inactive) | 14.8 µM (inactive) | 19.9 µM (inactive) | 18.4 µM (inactive) | 25.7 µM (inactive) | 16 µM (inactive) | 39.4 µM (inactive) | 17.9 µM (inactive) | 18.7 µM (inactive) | 20.9 µM (inactive) | 14.2 µM (inactive) | 18.7 µM (inactive) | 17.5 µM (inactive) | 45.2 µM (inactive) | 15.9 µM (inactive) |
| COc1ccc2c(c1)c(=O)c1c(NCCCN(C)C)ccc3ncn2c31 | 1.19 µM (inactive) | 2.8 µM (inactive) | 3.05 µM (inactive) | 4.42 µM (inactive) | 0.783 µM (active) | 1.38 µM (inactive) | 4.78 µM (inactive) | 5.37 µM (inactive) | 11.6 µM (inactive) | 0.993 µM (active) | 10.4 µM (inactive) | 12.3 µM (inactive) | 0.495 µM (active) | 1.29 µM (inactive) | 13.2 µM (inactive) | 14.2 µM (inactive) | 7.67 µM (inactive) | 6.1 µM (inactive) | 1.35 µM (inactive) | 2.62 µM (inactive) |
| COc1ccc2cc(CNCCCCCCCCNCc3ccc4cc(OC)ccc4c3)ccc2c1 | 13.5 µM (inactive) | 2.48 µM (inactive) | 1.85 µM (inactive) | 1.58 µM (inactive) | 4.97 µM (inactive) | 3.92 µM (inactive) | 1.86 µM (inactive) | 7.74 µM (inactive) | 6.85 µM (inactive) | 4.37 µM (inactive) | 6.61 µM (inactive) | 6.9 µM (inactive) | 6.61 µM (inactive) | 1.48 µM (inactive) | 5.78 µM (inactive) | 4.71 µM (inactive) | 11.7 µM (inactive) | 3.37 µM (inactive) | 3.66 µM (inactive) | 6.78 µM (inactive) |
| COc1c(O)ccc(C2=Cc3ccc(O)cc3OC2)c1OC | 24.8 µM (inactive) | 28.2 µM (inactive) | 21 µM (inactive) | 2.82 µM (inactive) | 20.9 µM (inactive) | 7.33 µM (inactive) | 21 µM (inactive) | 3.68 µM (inactive) | 18.9 µM (inactive) | 2.34 µM (inactive) | 14.9 µM (inactive) | 30.1 µM (inactive) | 18 µM (inactive) | 3.51 µM (inactive) | 34.3 µM (inactive) | 23.4 µM (inactive) | 16.1 µM (inactive) | 55.2 µM (inactive) | 26 µM (inactive) | 11.6 µM (inactive) |
| O=C1c2ccccc2C(=O)[C@@]23O[C@@]12C1(Oc2cccc4cccc(c24)O1)[C@@H]1O[C@@H]1[C@@H]3O | 18.4 µM (inactive) | 9.91 µM (inactive) | 6.17 µM (inactive) | 1.66 µM (inactive) | 12.6 µM (inactive) | 14 µM (inactive) | 8.97 µM (inactive) | 9.46 µM (inactive) | 13.4 µM (inactive) | 3.36 µM (inactive) | 4.65 µM (inactive) | 17.8 µM (inactive) | 4.71 µM (inactive) | 2.68 µM (inactive) | 20.6 µM (inactive) | 19.2 µM (inactive) | 24.4 µM (inactive) | 11.3 µM (inactive) | 7.1 µM (inactive) | 9.18 µM (inactive) |
| CC(C)NC(=O)OCc1c(COC(=O)NC(C)C)c(-c2cc[n+](COC(=O)C3CCCCC3)cc2)n2c1CCC2 | > 100 µM (inactive) | > 100 µM (inactive) | > 100 µM (inactive) | 32.4 µM (inactive) | > 100 µM (inactive) | > 100 µM (inactive) | > 100 µM (inactive) | > 100 µM (inactive) | > 100 µM (inactive) | > 100 µM (inactive) | > 100 µM (inactive) | > 100 µM (inactive) | > 100 µM (inactive) | > 100 µM (inactive) | > 100 µM (inactive) | > 100 µM (inactive) | > 100 µM (inactive) | > 100 µM (inactive) | > 100 µM (inactive) | > 100 µM (inactive) |
| Cc1cccc2cc3ccc4ccccc4c3cc12 | 37.1 µM (inactive) | 19.4 µM (inactive) | 19.9 µM (inactive) | 24.9 µM (inactive) | 68.4 µM (inactive) | 37.2 µM (inactive) | 48.5 µM (inactive) | 38.9 µM (inactive) | 56.5 µM (inactive) | 27.9 µM (inactive) | 63.2 µM (inactive) | 38.5 µM (inactive) | > 100 µM (inactive) | 34.6 µM (inactive) | > 100 µM (inactive) | 26.5 µM (inactive) | 21.9 µM (inactive) | 36.6 µM (inactive) | 41.4 µM (inactive) | 77.8 µM (inactive) |
